# Data from patent US20200260724A1, “METHODS TO FORMULATE NEUTRAL ORGANIC COMPOUNDS WITH POLYMER NANOPARTICLES” (Vive Crop Protection Inc., priority 2010, published 2020).
# Assays:
# [1] = Viscosity of solutions and dispersions in cP; format: physicochemical; details: temperature printed per sample, 23.1-26.0° C.
# Description: Solid 2,4-dichlorophenoxyacetic acid (2,4-D) (0.158 g, 0.72 mmol) and fresh deionized water (50 mL) were added to a 100 mL glass beaker, along with a stir bar. The medium was connected to a pH meter and the reading was at 2.76. To the stirring dispersion, aqueous NaOH (10N) was added dropwise. As the pH increased, more solid 2,4-D dissolved the dispersion became more transparent. Eventually, all of the solid 2,4-D dissolved completely, and the solution appeared transparent. The pH and viscosity of the solution was measured at 10.76 and 0.93 cP at 25.4° C. For the reference, the viscosity of pure water was measured using the same instrument and shown a value of 0.92 cP at 26.4° C.
# [2] = Pyrene fluorescent probe of nanoparticle microenvironment (I1/I3 ratio); format: physicochemical; details: pyrene emission, excitation 340 nm
# Description: The intensity ratio of the first and third vibronic bands (I1/I3) in the emission spectra of the pyrene monomer is very sensitive to the monomer's microenvironment, and can be used as a metric to gauge the hydrophobic nature of different polymer nanoparticles produced using the methods described in this patent.
# The pyrene microenvironments from different polymer nanoparticles were probed for the following nanoparticles: Na^+-collapsed polyacrylic acid (Na-PAA), ZnO/polyacrylic nanoparticles (ZnO-PAA), Zn^2+-collapsed nanoparticles (Zn-PAA), Na^+-collapsed PMAA nanoparticles (Na-PMAA), Na^+-collapsed P(MAA-co-EA) nanoparticles (Na—P(MAA-EA), poly(vinyl pyrollidone)-collapsed polyacrylic acid nanoparticles (PVP/PAA). Aqueous pyrene-nanoparticle solutions were prepared as follows. 1.0 mg pyrene was dissolved in 10 mL discholormethane and was used as the stock pyrene solution (0.1 mg/mL). To prepare the aqueous pyrene-nanoparticle solutions, 10 micro liters of the stock pyrene solution was added to a 20 mL scintillation vial and was allowed to air dry in a fume hood for one hour. 80 mg of solid nanoparticles or polymer, 10 g of deionized water and a magnetic stir bar were then added to the vial. […] Emission spectra were measured on a Perkin Elmer LS 55 Luminescence Spectrometer using an excitation wavelength of 340 nm, having slit widths for both excitation and emission at 2.5 nm. […]
SMILES,Viscosity of solution or nanoparticle dispersion [1] [cP],I1/I3 ratio ([2]; pH 6-8),I1/I3 ratio ([2]; pH 8-10)
"O=C(O)COc1ccc(Cl)cc1Cl [2,4-D, 2,4-dichlorophenoxyacetic acid]",0.93,–,–
"c1cc2ccc3cccc4ccc(c1)c2c34 [Pyrene - control, pyrene]",–,1.68,1.70
